Experimental data from US20030156977A1, “Method for rapidly sterilizing a load” (priority 2000, published 2003).
Where “and” joins values, the source holds several entries; their conditions need not be identical. Equal entries are not always repeated. Where two headings read alike, the source gives them in different places.

Key:
[1] = tested on: Bacillus stearothermophilus spores
Description: The sterilization process was run under the following conditions:
The trays containing the inoculated coupons and the various loads were wrapped with sterilization wrap and sealed with sterilization tape.
The effectiveness of the sterilization process was determined by placing stainless steel coupons inoculated with >10^6 Bacillus stearothermophilus spores as biological indicators (BI's) into 3 mm×400 mm stainless steel lumens. The lumens were placed into double-wrapped sterilizer trays with the loads of medical instruments to be sterilized. At the end of the cycle, the BIs were recovered from the lumens, placed into tubes of TSB (Trypticase soy broth) medium and incubated at 55-60° C. for 14 days. The biological activity was then determined.
(§1) The pressure inside the chamber was also monitored as a function of time. After the completion of the sterilization cycle, the chamber was vented, the equipment was removed, and the inoculated coupons were tested for growth in the medium. […] The sterilization results and the summary of the various methods of analyzing the hydrogen concentration data are shown in Table 2 below.

[2] = for -Initial slope, k: 8.6 mg/L H2O2 injected, 6 trays, 20 min pre-plasma, first 50 seconds after maximum concentration
Description: as §1
The data were analyzed in various ways to determine whether a method could be found to quickly determine the suitability of the load for sterilization.
FIGS. 5-8 show graphs of ln(c/c0) versus time for a validation load (FIG. 5), a heavy load (FIG. 6), a heavy load with a new towel (FIG. 7), and a heavy load with an old towel (FIG. 8).
The initial slopes in Table 2 are recorded as the negative of the initial slopes for simplicity in recording the data.
The final concentration is measured at the end of the diffusion step 50, prior to evacuating and generating the post-injection plasma.

[3] = Group 7 validation loads with one towel
[4] = Group 8 validation loads with two towels

OO [hydrogen peroxide]
Fraction Positive BIs ([1]; Group 1: validation load, 8.6 or 9.3 mg/L H2O2 injected, 6 trays, 20 min pre-plasma): 0/10
BI's of all runs of the group ([1]; Group 1 validation loads): negative
Fraction Positive BIs ([1]; Group 2: heavy load, 1 filter, 8.6 mg/L H2O2 injected, 6 trays, 20 min pre-plasma): 0/10
Fraction Positive BIs ([1]; Group 2: heavy load, 2 filters, 8.6 mg/L H2O2 injected, 6 trays, 20 min pre-plasma): 0/10
Fraction Positive BIs ([1]; Group 2: heavy load, brass, 8.6 mg/L H2O2 injected, 6 trays, 20 min pre-plasma): 0/10
Fraction Positive BIs ([1]; Group 2: heavy load, mat, 8.6 mg/L H2O2 injected, 6 trays, 20 min pre-plasma): 0/10
Fraction Positive BIs ([1]; Group 2: heavy load, 8.6 mg/L H2O2 injected, 6 trays, 20 min pre-plasma): 1/10
Positive BI's, total of all runs of the group ([1]; Group 2 heavy loads): 1 of the 60
Fraction Positive BIs ([1]; Group 3: heavy load, 1 new towel, 8.6 mg/L H2O2 injected, 6 trays, 20 min pre-plasma): 6/10
Fraction Positive BIs ([1]; Group 3: heavy load, 2 new towels, 8.6 mg/L H2O2 injected, 6 trays, 20 min pre-plasma): 5/10
Fraction Positive BIs ([1]; Group 3: heavy load, 6/8 towel, 8.6 mg/L H2O2 injected, 6 trays, 20 min pre-plasma): 3/10
Positive BI's, total of all runs of the group ([1]; Group 3 heavy load/new towel runs): 14/30
Fraction Positive BIs ([1]; Group 4: heavy load, 1 old towel, 8.6 mg/L H2O2 injected, 6 trays, 20 min pre-plasma): 10/10
Positive BI's, total of all runs of the group ([1]; Group 4 heavy load/old towel runs): 20 of the 20
Fraction Positive BIs ([1]; Group 5: validation load, initial load temperature 5° C., 9.3 mg/L H2O2 injected, 4 trays, 15 min pre-plasma): 0/12
BI's of all runs of the group ([1]; Group 5 cold validation loads, 15 minutes of pre-plasma, 72 BI's): negative
Fraction Positive BIs ([1]; Group 6: validation load, initial load temperature 5° C., 9.3 mg/L H2O2 injected, 4 trays, no pre-plasma): 0/12
BI's of all runs of the group ([1]; Group 6 cold condensing validation loads, no pre-plasma): negative
Positive BI's, total of all runs of the group [1, 3]: 4/72
Positive BI's, total of all runs of the group [1, 4]: 3/73
Initial slope, average ([2]; Group 1 runs with the validation loads): 0.00983 s⁻¹
-Initial slope, k ([2]; Group 2: heavy load, 1 filter): 0.016 s⁻¹
-Initial slope, k ([2]; Group 2: heavy load, 2 filters): 0.017 s⁻¹
-Initial slope, k ([2]; Group 2: heavy load, brass): 0.012 s⁻¹
-Initial slope, k ([2]; Group 2: heavy load, mat): 0.013 s⁻¹
-Initial slope, k ([2]; Group 2: heavy load): 0.016 s⁻¹
Initial slope, average ([2]; Group 2 runs with the heavy loads): 0.0145 s⁻¹
Initial slopes, range over runs ([2]; Group 2 runs with the heavy loads (all variants)): 0.012 to 0.017 s⁻¹
-Initial slope, k ([2]; Group 3: heavy load, 1 new towel): 0.026 s⁻¹
-Initial slope, k ([2]; Group 3: heavy load, 2 new towels): 0.028 s⁻¹
-Initial slope, k ([2]; Group 3: heavy load, 6/8 towel): 0.019 s⁻¹
Initial slope, average ([2]; Group 3 runs with the heavy loads and new towel): 0.0243 s⁻¹
Initial slopes, range over runs ([2]; Group 3 runs with the heavy loads and new towel (all variants)): 0.019 to 0.028 s⁻¹
-Initial slope, k ([2]; Group 4: heavy load, 1 old towel): 0.039 s⁻¹ and 0.025 s⁻¹
Initial slope, average ([2]; Group 4 runs with the heavy loads and old towel): 0.032 s⁻¹
Initial slope, average ([2]; Group 5 runs with the cold validation loads and 15 minutes of pre-plasma): 0.0095 s⁻¹
Initial slope, average ([2]; Group 6 runs with the cold condensing validation loads with no pre-plasma): 0.0164 s⁻¹
Initial slope, average [2, 3]: 0.0195 s⁻¹
Initial slope, average [2, 4]: 0.028 s⁻¹
Initial slope by type of load ([2]; cold, condensing load): 0.016 s⁻¹
Initial slope by type of load ([2]; heavy load): 0.015 s⁻¹
Initial slope by type of load ([2]; heavy load with towel): > 0.020 s⁻¹
Initial slope by type of load ([2]; validation load): 0.010 s⁻¹
